Reference: patent US20200017496A1 (priority 2017, published 2020)
Read-outs that look alike come from different tables or passages of the source.

Test system: Klebsiella pneumoniae (KPN) isolates
Experiment: MIC of compounds alone and combined with antibacterials, broth microdilution (CLSI)
Type: cell-based
Conditions: Klebsiella pneumoniae, read-out: MIC
Procedure, shortened: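 First, log-phase suspensions are brought to a final 5·10^5 CFU/mL in cation-adjusted Mueller-Hinton broth. Then plates with compound, antibacterial, or both incubate 16-20 h at 35° C under ambient air. Finally, visual inspection gives the lowest growth-preventing concentration for each agent.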

In the case of `C=CC1=C(C(=O)O)N2C(=O)[C@@H](NC(=O)/C(=N\OCC(=O)O)c3csc(N)n3)[C@H]2SC1` [FIX, Cefixime], the MIC (BAA1898, strain KPN BAA-1898 (TEM-1, SHV-11, SHV-12, KPC-2), ATB alone) is reported as greater than 128 µg/mL, the MIC (BAA1898, strain KPN BAA-1898 (TEM-1, SHV-11, SHV-12, KPC-2), CLA @ 4 μg/ml+ ATB) is reported as 64 µg/mL and the MIC (KPN 110376, alone) is reported as greater than 128 µg/mL. The MIC (KPN 131119, alone) was greater than 128 µg/mL, the MIC (KPN 190270, alone) was greater than 128 µg/mL and the MIC (KPN UFR25, alone) was greater than 128 µg/mL. The MIC (KPN UFR66, alone) was 512 µg/mL, the MIC (KPN UFR68, alone) was greater than 128 µg/mL and the MIC (strain KPN 6299 (TEM-1, SHV-11, OXA-163), ATB alone) was 8 µg/mL. It also gave an MIC (strain KPN 6299 (TEM-1, SHV-11, OXA-163), CLA @ 4 μg/ml+ ATB) of 8 µg/mL, an MIC (strain KPN 110376 (TEM-1, SHV-1, CTX-M-15, OXA-1, OXA-48), ATB alone) greater than 128 µg/mL and an MIC (strain KPN 110376 (TEM-1, SHV-1, CTX-M-15, OXA-1, OXA-48), CLA @ 4 μg/ml+ ATB) of 128 µg/mL. It also gave an MIC (strain KPN 131119 (TEM-1, SHV-11, CTX-M-15, OXA-1, OXA-48), ATB alone) greater than 128 µg/mL, an MIC (strain KPN 131119 (TEM-1, SHV-11, CTX-M-15, OXA-1, OXA-48), CLA @ 4 μg/ml+ ATB) greater than 128 µg/mL and an MIC (strain KPN 140513 (TEM-1, SHV-11, CTX-M-15, KPC-3), ATB alone) greater than 128 µg/mL. The MIC (strain KPN 140513 (TEM-1, SHV-11, CTX-M-15, KPC-3), CLA @ 4 μg/ml+ ATB) was greater than 128 µg/mL, the MIC (strain KPN 160143 (TEM-1, SHV-1, CTX-M-15, KPC-2, OXA-1), ATB alone) was greater than 128 µg/mL and the MIC (strain KPN 160143 (TEM-1, SHV-1, CTX-M-15, KPC-2, OXA-1), CLA @ 4 μg/ml+ ATB) was 2 µg/mL. The MIC (strain KPN 190128 (TEM-1, SHV-32, CTX-M-15, OXA-1), ATB alone) was greater than 128 µg/mL, the MIC (strain KPN 190128 (TEM-1, SHV-32, CTX-M-15, OXA-1), CLA @ 4 μg/ml+ ATB) was 0.5 µg/mL and the MIC (strain KPN 190270 (TEM-1, SHV-76, CTX-M-15, OXA-1), ATB alone) was greater than 128 µg/mL. It also gave an MIC (strain KPN 190270 (TEM-1, SHV-76, CTX-M-15, OXA-1), CLA @ 4 μg/ml+ ATB) of 1 µg/mL, an MIC (strain KPN 190425 (TEM-1, SHV-1, CTX-M-15, OXA-1), ATB alone) greater than 128 µg/mL and an MIC (strain KPN 190425 (TEM-1, SHV-1, CTX-M-15, OXA-1), CLA @ 4 μg/ml+ ATB) of no more than 0.25 µg/mL. For the same compound, the MIC (strain KPN 190551 (TEM-1, SHV-1, CTX-M-15, OXA-1), ATB alone) was greater than 128 µg/mL, the MIC (strain KPN 190551 (TEM-1, SHV-1, CTX-M-15, OXA-1), CLA @ 4 μg/ml+ ATB) was no more than 0.25 µg/mL and the MIC (strain KPN 200047 (TEM-1, SHV-32, CTX-M-15, OXA-1), ATB alone) was greater than 128 µg/mL. The MIC (strain KPN 200047 (TEM-1, SHV-32, CTX-M-15, OXA-1), CLA @ 4 μg/ml+ ATB) was no more than 0.25 µg/mL, the MIC (strain KPN 200327 (TEM-1, SHV-1, CTX-M-15, OXA-1), ATB alone) was 64 µg/mL and the MIC (strain KPN 200327 (TEM-1, SHV-1, CTX-M-15, OXA-1), CLA @ 4 μg/ml+ ATB) was no more than 0.25 µg/mL. The MIC (strain KPN 260251 (TEM-1, SHV-11, SHV-12, CTX-M-15, KPC-2), ATB alone) was greater than 128 µg/mL, the MIC (strain KPN 260251 (TEM-1, SHV-11, SHV-12, CTX-M-15, KPC-2), CLA @ 4 μg/ml+ ATB) was 32 µg/mL and the MIC (strain KPN 260252 (TEM-1, SHV-11, KPC-3), ATB alone) was greater than 128 µg/mL. It also gave an MIC (strain KPN 260252 (TEM-1, SHV-11, KPC-3), CLA @ 4 μg/ml+ ATB) of 128 µg/mL, an MIC (strain KPN 260376 (SHV-1, SHV-49, OXA-1), ATB alone) greater than 128 µg/mL and an MIC (strain KPN 260376 (SHV-1, SHV-49, OXA-1), CLA @ 4 μg/ml+ ATB) of no more than 0.25 µg/mL. It also gave an MIC (strain KPN 270077 (TEM-1, SHV-1, CTX-M-15), ATB alone) greater than 128 µg/mL, an MIC (strain KPN 270077 (TEM-1, SHV-1, CTX-M-15), CLA @ 4 μg/ml+ ATB) of 0.5 µg/mL and an MIC (strain KPN 700603 (SHV-18, OXA-2), ATB alone) of 16 µg/mL. It also gave an MIC (strain KPN 700603 (SHV-18, OXA-2), CLA @ 4 μg/ml+ ATB) of 0.5 µg/mL, an MIC (strain KPN ARA (TEM-1, SHV-11, CTX-M-15, OXA-1, OXA-48), ATB alone) greater than 128 µg/mL and an MIC (strain KPN ARA (TEM-1, SHV-11, CTX-M-15, OXA-1, OXA-48), CLA @ 4 μg/ml+ ATB) of 128 µg/mL. For the same compound, the MIC (strain KPN LIB (SHV-11, OXA-48), ATB alone) was no more than 0.25 µg/mL, the MIC (strain KPN LIB (SHV-11, OXA-48), CLA @ 4 μg/ml+ ATB) was no more than 0.25 µg/mL and the MIC (strain KPN UFR22_O (TEM-1, SHV-1, OXA-48), ATB alone) was no more than 0.25 µg/mL. For the same compound, the MIC (strain KPN UFR22_O (TEM-1, SHV-1, OXA-48), CLA @ 4 μg/ml+ ATB) was no more than 0.25 µg/mL, the MIC (strain KPN UFR23 (TEM-1, SHV-1, OXA-48), ATB alone) was no more than 0.25 µg/mL and the MIC (strain KPN UFR23 (TEM-1, SHV-1, OXA-48), CLA @ 4 μg/ml+ ATB) was no more than 0.25 µg/mL. The MIC (strain KPN UFR24 (TEM-1, SHV-2, SHV-11, OXA-1, OXA-48, OXA-47), ATB alone) was greater than 128 µg/mL, the MIC (strain KPN UFR24 (TEM-1, SHV-2, SHV-11, OXA-1, OXA-48, OXA-47), CLA @ 4 μg/ml+ ATB) was 64 µg/mL and the MIC (strain KPN UFR25 (TEM-1, SHV-11, CTX-M-15, OXA-162), ATB alone) was greater than 128 µg/mL. For the same compound, the MIC (strain KPN UFR25 (TEM-1, SHV-11, CTX-M-15, OXA-162), CLA @ 4 μg/ml+ ATB) was 64 µg/mL, the MIC (strain KPN UFR27 (TEM-1, SHV-28, CTX-M-15, OXA-204), ATB alone) was greater than 128 µg/mL and the MIC (strain KPN UFR27 (TEM-1, SHV-28, CTX-M-15, OXA-204), CLA @ 4 μg/ml+ ATB) was greater than 128 µg/mL. The MIC (strain KPN UFR28 (TEM-1, SHV-1, CTX-M-15, OXA-1, OXA-232), ATB alone) was 256 µg/mL, the MIC (strain KPN UFR28 (TEM-1, SHV-1, CTX-M-15, OXA-1, OXA-232), CLA @ 4 μg/ml+ ATB) was 64 µg/mL and the MIC (strain KPN UFR65 (TEM-1, SHV-11, KPC-2), ATB alone) was greater than 128 µg/mL. The MIC (strain KPN UFR65 (TEM-1, SHV-11, KPC-2), CLA @ 4 μg/ml+ ATB) was 128 µg/mL, the MIC (strain KPN UFR66 (TEM-1, SHV-11, CTX-M-15, KPC-2), ATB alone) was 512 µg/mL and the MIC (strain KPN UFR66 (TEM-1, SHV-11, CTX-M-15, KPC-2), CLA @ 4 μg/ml+ ATB) was 64 µg/mL. For the same compound, the MIC (strain KPN UFR67 (TEM-1, SHV-11, KPC-3), ATB alone) was greater than 128 µg/mL, the MIC (strain KPN UFR67 (TEM-1, SHV-11, KPC-3), CLA @ 4 μg/ml+ ATB) was 128 µg/mL and the MIC (strain KPN UFR68 (TEM-1, SHV-11, CTX-M-15, KPC-3), ATB alone) was greater than 128 µg/mL. It also gave an MIC (strain KPN UFR68 (TEM-1, SHV-11, CTX-M-15, KPC-3), CLA @ 4 μg/ml+ ATB) of 64 µg/mL, an MIC (strain KPN UFR76 (TEM-155, SHV-11, ACT-1, OXA-2), ATB alone) greater than 128 µg/mL and an MIC (strain KPN UFR76 (TEM-155, SHV-11, ACT-1, OXA-2), CLA @ 4 μg/ml+ ATB) greater than 128 µg/mL. For the same compound, the MIC (strain KPN UFR77 (CMY-2), ATB alone) was 128 µg/mL, the MIC (strain KPN UFR77 (CMY-2), CLA @ 4 μg/ml+ ATB) was 128 µg/mL and the MIC (strain KPN UFR78 (TEM-1, SHV-1, CTX-M-15, CMY-2, OXA-1, OXA-48), ATB alone) was greater than 128 µg/mL. It also gave an MIC (strain KPN UFR78 (TEM-1, SHV-1, CTX-M-15, CMY-2, OXA-1, OXA-48), CLA @ 4 μg/ml+ ATB) greater than 128 µg/mL.
